# Laboratory results published in US20080065002A1, “Catheter for Localized Drug Delivery and/or Electrical Stimulation” (NEUROSYSTEC CORPORATION, priority 2006, published 2008).
# Experiment: Expected decomposition of gacyclidine in solution
# Format: physicochemical
# Conditions: 72 hours at 37° C.
# Description: The compatibility of gacyclidine in Ringer's Lactate (pH 6.0) in PTFE tubing at room temperature and at 37° C. was evaluated. Three sets of six segments each of PTFE tubing were used. Six samples were collected at each of three time intervals (6 hr, 23 hr and 72 hr). For each set of samples collected, three were incubated at ambient temperature and three were incubated at 37° C. A 16.5 ft. long segment of PTFE tubing (0.010″ ID, 0.018″ OD) was filled with 100 μM gacyclidine in Ringer's Lactate solution (pH 6.0) by use of a glass syringe. The two ends of the tubing were sealed with a paraffin wax vapor barrier. After incubating at room temperature or 37° C. for a specified time, the solution was pumped directly into a glass HPLC autosampler vial insert using an air-filled syringe. The PTFE tubing drug loss in 72 hours at room temperature was 1.3% and at 37° C. was 7.9%. […] The expected amount of decomposition expected in 72 hours at 37° C. is 8.0%.
compound,measurement,value
CC1CCCCC1(c1cccs1)N1CCCCC1 (stereo not shown) [gacyclidine],expected amount of decomposition,8.0%
